Test results published in patent US20170327598A1, “SINGLE DOMAIN ANTIBODIES DIRECTED AGAINST INTRACELLULAR ANTIGENS” (SINGH MOLECULAR MEDICINE, LLC, priority 2014, published 2017).
Where “and” joins values, the source holds several entries; their conditions need not be identical. Identical values can stand only once. Like-named read-outs stand apart in the source and are kept apart here.

Experiments:
[1] = tested on: DU145 tumor xenograft; experiment: DU145 xenograft study, Example 11
[2] = tested on: MDA-MB-231 human breast cancer xenograft; conditions: for Individual Tumor Measurements: listed as anti-STAT3 bacterial VHH13
[3] = tested on: STAT3 reporter, induction by interleukin-6; experiment: STAT3 reporter GloResponse SIE-luc2P/HEK293 cell assay, IL-6 induction; assay type: cell-based; conditions: for decrease in RLU: highest concentration;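 as to all read-outs here: IL-6 added at 40 ng/mL (EC80) for roughly one day after pretreatment, luciferase luminescence read with Bio-Glo reagent, untreated +IL6 wells serve as control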
[4] = tested on: translocation of Stat3 to the nucleus; experiment: Stat3 immunofluorescence after IL-6 treatment (HEp-2, MDA-MB-231, PANC-1); assay type: cell-based; conditions: sdAb 1:10 in media overnight, 100 ng/ml IL-6 15 min
Experimental: The cells were grown to confluence on chamber slides. […] As a negative control, no antibody was added to duplicate chambers. The slides were washed, and either serum-free media alone or 100 ng/ml recombinant human IL-6 (Peprotech, Rocky Hill, N.J.) in serum free media was added to the slides for 15 min at 37° C. The media was then removed and the chamber slides were fixed in ice cold 100% methanol for 10 min at −20° C.
Immunofluorescence assays were performed on the fixed slides. First, the slides were blocked with 3% BSA in PBS was done for one hour at room temperature. The primary antibody, Stat3(124H6) mouse monoclonal antibody (Cell Signaling Technology, Danvers, Mass.) was added to the slides at a 1:1000 dilution overnight in dark box at 4° C. The following day, the slides were washed and the secondary Alexa Fluor 488 anti-mouse IgG antibody (Cell Signaling Technology) was added at a 1:500 dilution and incubated for 1 hour at room temperature. The slides were then washed, mounted with mounting media and viewed with a fluorescence microscope.

[5] = tested on: GloResponse SIE-luc2P/HEK 293 cells; experiment: BCA protein concentration of reporter cells run in parallel; assay type: cell-based; conditions: highest concentration
[6] = tested on: BT474 human breast tumor xenograft; experiment: BT474 human breast tumor xenograft in CB.17 SCID mice, Example 13; assay type: in vivo
[7] = tested on: PANC-1 human pancreatic cancer xenograft
[8] = tested on: PANC-1 xenograft; experiment: PANC-1 xenograft, sdAb alone, Gemcitabine alone or combination, Example 19; conditions: SBT-100 5 mg/kg BID, Gemcitabine 20 mg/kg, or both
[9] = tested on: DU145 cells; experiment: MTT proliferation assay, DU145; assay type: cell-based, human; parameters: Mean Abs: unit of the concentration uncertain
[10] = tested on: rabbit anti-llama biotinylated antibody or his-probe (H-3) biotin labeled antibody; experiment: ELISA with sdAbs coated, binding of secondary antibodies (Experiments 2 and 3)
Experimental: Two assays (Experiment 2 and 3) were performed to assess the binding of the secondary antibody to the sdAbs. A similar ELISA method was utilized except the sdAbs were directly coated onto the assay plate at a concentration of 1 μg/mL. Plates were incubated overnight at 2-8° C. After the incubation, plates were washed (3×) and blocked (3% BSA in PBS) for at least one hour at room temperature.
After removal of the blocking buffer and washing (3×), the secondary antibodies, either rabbit anti-llama biotinylated antibody or his-probe (H-3) biotin labeled antibody at was then added at a 1:5,000 dilution to each well and incubated with shaking for at least one hour at room temperature. Only the rabbit anti-llama biotinylated antibody was used in Experiment 2. Both antibodies were run in parallel in Experiment 3.
After the incubation with secondary antibody, the plates were again washed (3×) and HRP at a 1:50,000 dilution was added to each well. Plates were incubated with shaking for at least one hour at room temperature. One last wash (3×) was performed followed by the addition of TMB substrate and plates were incubated at room temperature. For the anti-llama biotinylated antibody stop solution was added to halt the colorimetric reaction at 10 minutes. The his-probe (H-3) biotin labeled antibody was allowed to incubate for 20 minutes prior to stopping. The absorbance at 450 nm was measured as before.

[11] = tested on: STAT5; experiment: Biacore 3000, sdAb immobilized, STAT5 analyte (Example 23); assay type: binding
[12] = 24 Hour Treatment Prior to IL6 Induction, high conc.: VHH13 55.8 μg/mL, VHH14 84.3 μg/mL, BB1608 4.16 μM, VHH69 50.5 μg/mL
[13] = 24 Hour Treatment Prior to IL6 Induction, low conc.: VHH13, VHH14, VHH69 10 μg/mL, BB1608 2 μM
[14] = 48 Hour Treatment Prior to IL6 Induction, high conc.: VHH13 55.8 μg/mL, VHH14 84.3 μg/mL, BB1608 4.16 μM, VHH69 50.5 μg/mL
[15] = 48 Hour Treatment Prior to IL6 Induction, low conc.: VHH13, VHH14, VHH69 10 μg/mL, BB1608 2 μM

Anti-STAT3 VHH13: anti-STAT3 single domain antibody, SEQ ID NO:3; bacterially produced form referred to as SBT-100
% treatment/control ([1]; 5 mg/kg bw IP BIDx14): 74.8% | tumor doubling time ([1]; 5 mg/kg bw IP BIDx14): 18.19 days | mean tumor growth inhibition ([1]; 5 mg/kg bw IP BIDx14, end of the study): 26.6% | mean tumor size (±SE) ([1]; 5 mg/kg bw IP BIDx14, last day of dosing (Day 14)): 364.14±51.64 | mean tumor size (±S.E.) ([1]; 5 mg/kg bw IP BIDx14, termination (day 28)): 601.83±131.51 | % mean tumor growth inhibition ([2]; 500 μg/kg bw IP QDx14): 33.64% | tumor doubling time ([2]; 500 μg/kg bw IP QDx14): 61.06 days | mean tumor size (±SE) ([2]; 500 μg/kg bw IP QDx14, day 14 of dosing): 118.86±15.94 | Individual Tumor Measurements ([2]; Group 2, 500 μg/kg bw IP QDx14, single animals, Day 1): 123.94 mm^3 and 85.93 mm^3 and 147.34 mm^3 and 115.91 mm^3 and 73.23 mm^3 | Tumor Measurements, group Mean ([2]; Group 2, Day 1): 102.61 mm^3 | Tumor Measurements, group Mean ([2]; Group 2, Day 6): 101.16 mm^3 | Tumor Measurements, group Mean ([2]; Group 2, Day 9): 112.44 mm^3 | Tumor Measurements, group Mean ([2]; Group 2, Day 12): 112.92 mm^3 | Tumor Measurements, group Mean ([2]; Group 2, Day 16): 118.86 mm^3 | Tumor Measurements, group Mean ([2]; Group 2, Day 20): 128.49 mm^3 | Individual Tumor Measurements ([2]; Group 2, single animals, Day 6): 114.91 mm^3 and 101.06 mm^3 and 148.72 mm^3 and 103.64 mm^3 and 82.59 mm^3 | Individual Tumor Measurements ([2]; Group 2, single animals, Day 9): 129.22 mm^3 and 112.60 mm^3 and 169.69 mm^3 and 108.37 mm^3 and 110.13 mm^3 | Individual Tumor Measurements ([2]; Group 2, single animals, Day 12): 176.04 mm^3 and 112.24 mm^3 and 185.08 mm^3 and 141.21 mm^3 and 91.22 mm^3 | Individual Tumor Measurements ([2]; Group 2, single animals, Day 16): 170.09 mm^3 and 139.56 mm^3 and 170.07 mm^3 and 144.51 mm^3 | Individual Tumor Measurements ([2]; Group 2, single animals, Day 20): 162.98 mm^3 and 96.43 mm^3 and 256.71 mm^3 and 119.42 mm^3 | Average RLU [3, 12]: 11498 RLU | Average RLU with Media Blank [3, 12]: 11473 RLU | Luminescence (RLU), single wells [3, 12]: 10992 RLU and 11445 RLU and 12058 RLU | Average RLU [3, 13]: 175275 RLU | Average RLU with Media Blank [3, 13]: 175249 RLU | Luminescence (RLU), single wells [3, 13]: 164397 RLU and 169890 RLU and 191537 RLU | Average RLU [3, 14]: 89 RLU | Average RLU with Media Blank [3, 14]: 57 RLU | Luminescence (RLU), single wells [3, 14]: 104 RLU and 96 RLU | Average RLU [3, 15]: 182218 RLU | Average RLU with Media Blank [3, 15]: 182185 RLU | Luminescence (RLU), single wells [3, 15]: 168740 RLU and 188307 RLU and 189606 RLU | effect on IL-6 induction of STAT3 reporter ([3]; 24 hours and 48 hours treatment prior to IL-6): Inhibition of IL-6 | decrease in RLU ([3]; 24 hours): greater than 10 fold | decrease in RLU ([3]; 48 hours): greater than 1,000 fold | translocation of Stat3 to the nucleus following IL-6 treatment [4]: blocks the translocation of Stat3 to the nucleus | decrease in protein [5]: approximately 2 fold | T-C ([6]; 1 mg/kg ip tid × 14 first day 2 doses): 10.8 | effect on growth of BT474 tumors in vivo ([6]; 1 mg/kg ip tid×14, compared to the control group): did not reduce the growth | MTV (n) Day 60 ([6]; Day 60, 1 mg/kg ip tid × 14, n in parentheses): 550 (3) | tumor volume ([6]; day 59 of the study, both groups): 700 cubic mm^3 | growth inhibition ([7]; 500 μg/kg bw IP QDx14): no significant growth inhibition | tumor doubling time ([7]; 500 μg/kg bw IP QDx14): 23.02 days | mean tumor size (±SE) ([7]; treatment group, day 14 of dosing): 318.74 ± 29.76 | TUMOR VOLUMES (mm^3) Mean ([8]; Day 1): 107.34 mm^3 | TUMOR VOLUMES (mm^3) Mean ([8]; Day 5): 145.86 mm^3 | TUMOR VOLUMES (mm^3) Mean ([8]; Day 8): 149.12 mm^3 | % INHIBITION OF CONTROL (tumor growth) ([8]; Day 12): 20.70% | TUMOR VOLUMES (mm^3) Mean ([8]; Day 12): 188.78 mm^3 | TUMOR VOLUMES (mm^3) Mean ([8]; Day 15): 233.25 mm^3 | % INHIBITION OF CONTROL (tumor growth) ([8]; Day 19): 18.37% | TUMOR VOLUMES (mm^3) Mean ([8]; Day 19): 332.68 mm^3 | % INHIBITION OF CONTROL (tumor growth) ([8]; Day 22): 19.17% | TUMOR VOLUMES (mm^3) Mean ([8]; Day 22): 390.59 mm^3 | Average Absorbance ([9]; DU145, 50 μg): 0.98 | Average % Inhibition ([9]; DU145, 50 μg (50.0 μg/ml), listed as anti-STAT3 bacterial VHH13): 31.2% | Absorbance ([9]; DU145, 50 μg, Experiments 1-3, listed as Anti-STAT3 Bacterial VHH13): 0.68 and 1.2 and 1.03 | Average Absorbance ([9]; DU145, 100 μg): 0.10 | Mean Abs ([9]; Table 18, DU145, 0.39 (unit uncertain)): 0.906 | Mean Abs ([9]; Table 18, DU145, 3.13 (unit uncertain)): 0.783 | Mean Abs ([9]; Table 18, DU145, 6.25 (unit uncertain)): 0.770 | Mean Abs ([9]; Table 18, DU145, 25 (unit uncertain)): 0.359 | Mean Abs ([9]; Table 18, DU145, 50 (unit uncertain)): 0.161 | Mean Abs ([9]; Table 18, DU145, 100 (unit uncertain)): 0.039 | Mean Abs ([9]; Table 18, DU145, 200 (unit uncertain)): 0.039 | OD450 Values ([10]; His-probe (H-3), Experiment 3, stored 1:100 dilution of sdAb): 0.360 | OD450 Values ([10]; Rabbit anti-Llama Secondary Antibody, Experiment 2, sdAb coated at 1 μg/mL): 1.313 | OD450 Values ([10]; Rabbit anti-Llama Secondary Antibody, Experiment 3, stored 1:100 dilution of sdAb): 0.363 | binding of STAT5 ([11]; Biacore, sdAb immobilized): bound | Result ([11]; sdAb immobilized (STAT5-31 440 RU, anti-KRAS 140 RU, VHH13 1000 RU), STAT5 protein analyte 500 nM): Binding
